Several values for one entry are separate records, joined by “and”; a condition that tells them apart may be missing. Equal entries are not always repeated.
System: BDF1 mice, Adenocarcinoma 755 s.c., tumor weight T/C
Assay: NCI In Vivo Anticancer Drug Screen. Data for tumor model Adenocarcinoma 755 (subcutaneous) in B6D2F1 (BDF1) mice
Details: endpoint: mean tumor weight, higher = larger tumour
Outline: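 Tumor-bearing mice receive test compound while controls get vehicle alone. Antitumor effect is scored from survival or tumor dimensions as a T/C quotient.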

[1] = dose: 3.0 mg/kg/injection, schedule: Q01DX011 (ip), vehicle: carboxymethylcellulose (CMC)
[2] = dose: 3.12 mg/kg/injection, schedule: Q01DX011 (ip), vehicle: methylcellulose (MC)
[3] = dose: 6.25 mg/kg/injection, schedule: Q01DX011 (ip), vehicle: methylcellulose (MC)
[4] = dose: 12.5 mg/kg/injection, schedule: Q01DX011 (ip), vehicle: methylcellulose (MC)
[5] = dose: 25.0 mg/kg/injection, schedule: Q01DX011 (ip), vehicle: methylcellulose (MC)
[6] = dose: 190.0 mg/kg/injection, schedule: Q01DX011 (ip), vehicle: carboxymethylcellulose (CMC)
[7] = dose: 30.0 mg/kg/injection, schedule: Q01DX011 (ip), vehicle: carboxymethylcellulose (CMC)
[8] = dose: 120.0 mg/kg/injection, schedule: Q01DX011 (ip), vehicle: carboxymethylcellulose (CMC)
[9] = dose: 240.0 mg/kg/injection, schedule: Q01DX011 (ip), vehicle: carboxymethylcellulose (CMC)
[10] = dose: 25.0 mg/kg/injection, schedule: Q01DX011 (ip), vehicle: carboxymethylcellulose (CMC)

CCCn1cnc2c(SCc3ccccc3Cl)nc(N)nc21
T/C (dose: 0.78 mg/kg/injection, schedule: Q01DX011 (ip), vehicle: methylcellulose (MC)): 85 % of control | T/C (dose: 1.56 mg/kg/injection, schedule: Q01DX011 (ip), vehicle: methylcellulose (MC)): 72 % of control | T/C [1]: 70 % of control | T/C [2]: 62 % of control | T/C (dose: 6.0 mg/kg/injection, schedule: Q01DX011 (ip), vehicle: carboxymethylcellulose (CMC)): 47 % of control | T/C [3]: 60 % of control | T/C (dose: 12.0 mg/kg/injection, schedule: Q01DX011 (ip), vehicle: carboxymethylcellulose (CMC)): 45 % of control | T/C [4]: 43 % of control | T/C (dose: 24.0 mg/kg/injection, schedule: Q01DX011 (ip), vehicle: carboxymethylcellulose (CMC)): 17 % of control | T/C [5]: 7 % of control | T/C (dose: 48.0 mg/kg/injection, schedule: Q01DX011 (ip), vehicle: carboxymethylcellulose (CMC)): 4 % of control | T/C (dose: 96.0 mg/kg/injection, schedule: Q01DX011 (ip), vehicle: carboxymethylcellulose (CMC)): 2 % of control | T/C [6]: 3 % of control | T/C (dose: 192.0 mg/kg/injection, schedule: Q01DX011 (ip), vehicle: carboxymethylcellulose (CMC)): 1 % of control | T/C (dose: 380.0 mg/kg/injection, schedule: Q01DX011 (ip), vehicle: carboxymethylcellulose (CMC)): 4 % of control

CC(C)Cn1cnc2c(SC(C)C)nc(N)nc21
T/C [3]: 56 % of control | T/C [4]: 19 % of control | T/C [5]: 4 % of control | T/C (dose: 50.0 mg/kg/injection, schedule: Q01DX011 (ip), vehicle: methylcellulose (MC)): 1 % of control

CC(=O)[C@H]1CC[C@H]2[C@@H]3C[C@H](C)C4=CC(=O)CC[C@]4(C)[C@H]3C(=O)C[C@]12C
T/C (dose: 25.0 mg/kg/injection, schedule: Q01DX011 (sc), vehicle: steriod suspending solution): 65 % of control | T/C (dose: 50.0 mg/kg/injection, schedule: Q01DX011 (sc), vehicle: steriod suspending solution): 78 % of control | T/C (dose: 200.0 mg/kg/injection, schedule: Q01DX011 (sc), vehicle: steriod suspending solution): 35 % of control and 43 % of control | T/C (dose: 400.0 mg/kg/injection, schedule: Q01DX011 (sc), vehicle: steriod suspending solution): 21 % of control | T/C (dose: 800.0 mg/kg/injection, schedule: Q01DX011 (sc), vehicle: steriod suspending solution): 30 % of control

Cc1n[nH]c(=O)[nH]c1=O
T/C (dose: 400.0 mg/kg/injection, schedule: Q01DX011 (ip), vehicle: other): 59 % of control | T/C (dose: 800.0 mg/kg/injection, schedule: Q01DX011 (ip), vehicle: other): 72 % of control

CN1CC[C@]23c4c5ccc(O)c4O[C@H]2C(=O)CC[C@H]3[C@H]1C5
T/C (dose: 8.0 mg/kg/injection, schedule: Q01DX011 (ip), vehicle: methylcellulose (MC)): 53 % of control and 70 % of control | T/C (dose: 16.0 mg/kg/injection, schedule: Q01DX011 (ip), vehicle: methylcellulose (MC)): 50 % of control and 75 % of control | T/C (dose: 32.0 mg/kg/injection, schedule: Q01DX011 (ip), vehicle: methylcellulose (MC)): 61 % of control

[N-]=[N+]=CC(=O)NCC(=O)NN
T/C (dose: 62.5 mg/kg/injection, schedule: Q01DX011 (ip), vehicle: saline): 115 % of control | T/C (dose: 250.0 mg/kg/injection, schedule: Q01DX011 (ip), vehicle: saline): 39 % of control | T/C (dose: 500.0 mg/kg/injection, schedule: Q01DX011 (ip), vehicle: saline): 43 % of control

CC(C)C(Sc1nc(N)nc2nc[nH]c12)C(=O)O (stereo unspecified)
T/C (dose: 23.7 mg/kg/injection, schedule: Q01DX011 (ip), vehicle: carboxymethylcellulose (CMC)): 113 % of control | T/C (dose: 47.5 mg/kg/injection, schedule: Q01DX011 (ip), vehicle: carboxymethylcellulose (CMC)): 81 % of control | T/C (dose: 95.0 mg/kg/injection, schedule: Q01DX011 (ip), vehicle: carboxymethylcellulose (CMC)): 83 % of control | T/C [6]: 64 % of control

Nc1[nH]c(=S)ncc1NC=O
T/C [7]: 90 % of control | T/C [8]: 91 % of control | T/C [9]: 79 % of control

C=CC(=O)NCO
T/C (dose: 100.0 mg/kg/injection, schedule: Q01DX011 (ip), vehicle: other): 86 % of control | T/C (dose: 150.0 mg/kg/injection, schedule: Q01DX011 (ip), vehicle: other): 89 % of control | T/C (dose: 200.0 mg/kg/injection, schedule: Q01DX011 (ip), vehicle: other): 88 % of control

COc1cc(/C=N/Nc2nc3c([nH]2)c(=O)n(C)c(=O)n3C)ccc1O
T/C [7]: 91 % of control | T/C [8]: 119 % of control

CCCCNc1ncnc2c1cnn2C1CCCCO1 (stereo unspecified)
T/C [2]: 39 % of control | T/C [3]: 44 % of control | T/C [4]: 20 % of control | T/C [5]: 12 % of control

CC(C)Cn1cnc2c(=S)nc(N)[nH]c21
T/C (dose: 3.9 mg/kg/injection, schedule: Q01DX011 (ip), vehicle: methylcellulose (MC)): 5 % of control

Ic1ncnc2nc[nH]c12
T/C (dose: 2.5 mg/kg/injection, schedule: Q01DX011 (ip), vehicle: carboxymethylcellulose (CMC)): 90 % of control | T/C (dose: 3.2 mg/kg/injection, schedule: Q01DX011 (oral), vehicle: carboxymethylcellulose (CMC)): 78 % of control | T/C (dose: 5.0 mg/kg/injection, schedule: Q01DX011 (ip), vehicle: carboxymethylcellulose (CMC)): 90 % of control | T/C (dose: 7.5 mg/kg/injection, schedule: Q01DX011 (oral), vehicle: carboxymethylcellulose (CMC)): 41 % of control | T/C (dose: 15.0 mg/kg/injection, schedule: Q01DX011 (oral), vehicle: carboxymethylcellulose (CMC)): 14 % of control | T/C (dose: 62.5 mg/kg/injection, schedule: Q01DX011 (ip), vehicle: carboxymethylcellulose (CMC)): 21 % of control

CCCn1cnc2c(=S)nc[nH]c21
T/C (dose: 0.25 mg/kg/injection, schedule: Q01DX011 (ip), vehicle: carboxymethylcellulose (CMC)): 80 % of control | T/C (dose: 1.0 mg/kg/injection, schedule: Q01DX011 (ip), vehicle: carboxymethylcellulose (CMC)): 53 % of control | T/C [1]: 8 % of control and 11 % of control | T/C (dose: 4.0 mg/kg/injection, schedule: Q01DX011 (ip), vehicle: carboxymethylcellulose (CMC)): 7 % of control | T/C (dose: 6.25 mg/kg/injection, schedule: Q01DX011 (ip), vehicle: carboxymethylcellulose (CMC)): 6 % of control | T/C (dose: 8.0 mg/kg/injection, schedule: Q01DX011 (ip), vehicle: carboxymethylcellulose (CMC)): 10 % of control | T/C (dose: 12.5 mg/kg/injection, schedule: Q01DX011 (ip), vehicle: carboxymethylcellulose (CMC)): 5 % of control | T/C (dose: 16.0 mg/kg/injection, schedule: Q01DX011 (ip), vehicle: carboxymethylcellulose (CMC)): 4 % of control and 9 % of control | T/C [10]: 2 % of control | T/C (dose: 31.0 mg/kg/injection, schedule: Q01DX011 (ip), vehicle: carboxymethylcellulose (CMC)): 7 % of control | T/C (dose: 62.0 mg/kg/injection, schedule: Q01DX011 (ip), vehicle: carboxymethylcellulose (CMC)): 6 % of control

Cn1c(=O)c2[nH]c(N/N=C/c3ccc(Br)cc3)nc2n(C)c1=O
T/C [7]: 109 % of control | T/C (dose: 60.0 mg/kg/injection, schedule: Q01DX011 (ip), vehicle: carboxymethylcellulose (CMC)): 106 % of control | T/C [8]: 92 % of control and 116 % of control | T/C [9]: 104 % of control and 88 % of control | T/C (dose: 480.0 mg/kg/injection, schedule: Q01DX011 (ip), vehicle: carboxymethylcellulose (CMC)): 97 % of control

O=C(O)C(=O)O.[U]
T/C (dose: 12.5 mg/kg/injection, schedule: Q01DX011 (ip), vehicle: other): 73 % of control | T/C (dose: 12.5 mg/kg/injection, schedule: Q01DX011 (ip), vehicle: saline): 68 % of control | T/C (dose: 25.0 mg/kg/injection, schedule: Q01DX011 (ip), vehicle: other): 50 % of control | T/C (dose: 25.0 mg/kg/injection, schedule: Q01DX011 (ip), vehicle: saline): 39 % of control | T/C (dose: 50.0 mg/kg/injection, schedule: Q01DX011 (ip), vehicle: other): 49 % of control | T/C (dose: 50.0 mg/kg/injection, schedule: Q01DX011 (ip), vehicle: saline): 36 % of control | T/C (dose: 100.0 mg/kg/injection, schedule: Q01DX011 (ip), vehicle: saline): 25 % of control

NS(=O)(=O)c1nc(Cl)c2[nH]cnc2n1
T/C [10]: 116 % of control | T/C (dose: 75.0 mg/kg/injection, schedule: Q01DX011 (ip), vehicle: carboxymethylcellulose (CMC)): 73 % of control | T/C (dose: 225.0 mg/kg/injection, schedule: Q01DX011 (ip), vehicle: carboxymethylcellulose (CMC)): 69 % of control

CC(=O)OC1CCC(C2CCCCC2)CC1 (stereo unspecified)
T/C (dose: 29.0 mg/kg/injection, schedule: Q01DX011 (ip), vehicle: saline): 157 % of control | T/C (dose: 57.0 mg/kg/injection, schedule: Q01DX011 (ip), vehicle: saline): 173 % of control | T/C (dose: 57.0 mg/kg/injection, schedule: Q01DX011 (oral), vehicle: saline): 86 % of control | T/C (dose: 113.0 mg/kg/injection, schedule: Q01DX011 (oral), vehicle: saline): 102 % of control | T/C (dose: 225.0 mg/kg/injection, schedule: Q01DX011 (oral), vehicle: saline): 84 % of control

From PubChem BioAssay AID180 (DTP/NCI, 2004)
